Structures are written as SMILES. Entries after “also recorded” stand apart in the source; their conditions may differ.

The subject of data set [1] is B6D2 and Balb c males. Here is the method: The control group received the same volume (0.1 ml) of 0.9% saline buffer. At 14 days post birth, all offspring (8-12 pups from each litter) were injected (intraperitoneally) with VPA at […] or with saline buffer as a control. […] The F1 to F2 generations were obtained following treatment with the 300 to 500 mg/kg VPA doses. The F1 generation derived from VPA-injected F0 fathers is referred to as VPA-F1, while that from saline-injected fathers is identified as the control. Adult VPA-F1 males were bred with normal females.
VPA is known to perturb brain formation during early development^22 and to induce characteristic traits of ASD pathology^23,24. […] We treated the animals after birth rather than treating pregnant females as in previous studies^23,24 to avoid the multiple effects on embryonic development generated via the mothers during pregnancy as well as the effects on germ cells. […] In contrast, the injection of pregnant females often leads to an unpredicted arrest of embryonic development and mortality of the mothers either during pregnancy or after the birth of their progenies.
The spermatogonial stem cells that will continuously divide and differentiate throughout the life of the male are present, leaving open the possibility that some changes in transcript levels may be transmitted to the next generation.

Data set [2] has as its system Balb c mice. Nature of the data set: Novel object recognition test. The class given is in vivo, mouse. From the text:
The time spent with familiar versus novel objects highlighted a common characteristic of the test group versus the controls. Specifically, it indicated differences in the interest in and recognition of objects. NOR (novel object recognition) is a well-established test in a variety of animal models with multiple protocols. In general, it involves two trials of cognition evaluation based on the spontaneous exploratory conduct of a mouse to measure recognition memory. In the first trial, we used (first-day acquisition) animals that were exposed to two similar objects (small orange boxes) in a chamber for 5 minutes. During the second trial (second-day retention) mice were again exposed to two dissimilar objects for 5 minutes, including one familiar object from the first trial and one new object (blue box). Object recognition was measured (data not shown), according to the difference in the time spent with the familiar object versus the new object.

The subject of data set [3] is Balb c mice. Nature of the data set: Social interaction test (three chambers). The class given is in vivo, mouse. As to the method:
To determine whether these interactions varied between the groups of mice, they were filmed for 5 minutes. There are many different ways to follow social interaction. Here, we present the results in a simple way based on conditions in a cage separated into three sections. The mice being tested were placed in the center of the cage and were filmed to calculate the time that they spent close to the empty compartment or the compartment occupied by another mouse. The three chambers were separated by square doors in the two inner walls connecting to the center area. Briefly, the test mouse was introduced in the center to initiate habituation for 5 minutes while blocking access to the side compartments. The first test was conducted by placing an unfamiliar mouse inside an empty wire cage in one of the side chambers to measure the social interaction of the subject mouse without direct social contact. On the other side, there was an empty wire cage. Each test was performed for 10 minutes (data not shown), and the floor surfaces were wiped with 70% ethanol between trials. The accumulated time spent in each compartment and the sociability or social preference indices were measured to quantify the social behavior of the mice.

In data set [4] the test system is Balb c mice. The data set is described as follows: Tail suspension test. The data set is classed as in vivo, mouse. As to the method: Adult mice (2 months old) (Balb c strain) weighing 25-27 g on the test day. The apparatus used for the tail test consisted of two filter covers each and enabled three mice to be tested simultaneously. Each mouse was suspended by the tail from a hook connected to the strain gauge, to which they were attached with adhesive tape with a length of 18 cm. The duration of each trial was 360 seconds. The tail suspension test was recorded using a SONY HDR-CX240E video recorder. […] An immobility posture indicates the abandonment of struggling and, thus, depression. Periods of agitation and immobility are reported (data not shown).

In data set [5] the test system is Balb c mice. Nature of the data set: Glass marble burying test. The data set is classed as in vivo, mouse. Here is the method:
According to the described protocols, newly filled bedding cages were prepared with 20 marbles spaced on the bedding surface. Mice were individually caged. After 30 minutes, each mouse was returned to its home cage, and the buried marbles were counted (data not shown). Marbles that were not buried were not included in the analysis.

Data set [6] has as its system Balb c mice. The data set is described as follows: Open field and Morris water tests. As to conditions: 500 mg/kg VPA group (data not shown). The data set is classed as in vivo, mouse.
Data set [7] deals with six-microRNAs (miR-19a-3p, miR-361-5p, miR-3613-3p, miR-150-5p, miR-126-3p, miR-499a-5p). Nature of the data set: miRNA analysis of the mouse models (q-PCR of blood, sperm, hippocampus RNA). The data set is classed as in vivo. The following applies: VPA-treated mice (500 mg/kg). As to the method:
Routine qPCR for miR detection and validation^41 was performed with the miScript PCR control set (catalog number 218380; Qiagen, Germany). The miScript™ miRNA PCR Array Human Serum & Plasma 384HC (Cat No: 331223) was used in this study. The Human Serum & Plasma 384HC miScript miRNA PCR Array profiles the expression of 372 miRNAs) that are detectable in serum and plasma using the miScript PCR system. SNORD61, SNORD68, SNORD72, SNORD95, SNORD96A, RNU6-2, miRTC, miRTC, and PPC were used as controls. The data were normalized using the 2^−ΔΔct method.
Total RNA was prepared from mouse tissues (blood, hippocampus, sperm) according to published procedures^42. Sperm cells were isolated from the epididymis, and floating sperm were recovered by successive washing (PBS) and centrifugation at 3000 rpm. Briefly, RNAs were extracted from all tissues (hippocampus, blood and sperm cells) via a standard protocol. Qiazol Lysis Buffer (Cat. No: 79306; Qiagen, Texas, USA) was used in accordance with the manufacturer's instructions. The Qiazol-extracted aqueous phase was ethanol precipitated, followed by washing twice with 70% ethanol. To remove the remaining DNA, the PCR samples were treated with DNase according to the manufacturer's instructions.

As for `CCCC(CCC)C(=O)O` [VPA, valproic acid], the sudden mortality result in data set [1] (500 mg/kg i.p., males) was “without sudden mortality”. Further, the “mortality / lethality at high doses” value in data set [1] (600-700 mg/kg, one i.p. injection at 14 days post birth, both mouse lines) is listed as “dramatic lethality; also recorded: sudden dramatic mortality; also recorded: lethal”. Besides, the “breeding behaviour, fertility, testes” value in data set [1] (mouse, in vivo, 500 mg/kg) was “a few males became aggressive toward females during breeding, showed reduced fertility and smaller testes”. In addition, the “time spent with familiar versus novel objects” value was “Some effect was detectable” in data set [2] (400 mg/kg, only for familiar objects); “lost interest and spent the same amount of time with the two objects but spent less time overall with both objects” in data set [2] (500 mg/kg, treated males). Besides, the “overall activity in social interaction tests” value in data set [3] (500 mg/kg VPA group) was “decrease in overall activity”. In addition, the “time spent close to chamber with mouse versus empty chamber” value in data set [3] (500 mg/kg, treated males) was “showed less interest and spent an even smaller amount of time close to the empty cage”. In addition, the “immobility / struggle-related behaviour” value in data set [4] (500 mg/kg, F0 treated males) is “a significant change that indicated abandonment and depression was observed”; in data set [4] (F1 generation of VPA-treated fathers, compared to F0), “the reverse effect was observed”. Further, the “marbles buried in 30 minutes” value is reported as “the same behavior as in the founders, with significantly less activity” in data set [5] (500 mg/kg VPA F1 generation) and “markedly less interest in burying marbles” in data set [5] (500 mg/kg, treated males). In addition, the overall activity result in data set [6] is reported as “decrease in the overall activity as well by half”. For the same molecule, in data set [7], the “expression of the six-microRNAs” value was “decreases not only in the blood but also in the sperm and hippocampus”.

For the origin of these results see patent US20230295728A1, “METHODS FOR DIAGNOSING AND TREATING AUTISM” (CENTRE NATIONAL DE LA RECHERCHE SCIENTIFIQUE (CNRS), priority 2020, published 2023).
